Literature values, collected in patent publication US6740653B2, “Shelf life extension of microemulsions containing active aza biocide” (ISP Investments Inc., priority 2001, dated 2004).

For Cc1ccc(/N=C/N(C)/C=N/c2ccc(C)cc2C)c(C)c1 [Amitraz], the soluble in water is listed as 1 mg/L.
